From BindingDB's records for patent US10738053 (Hoffmann-La Roche, 2020)

Molecular target: Autotaxin (Homo sapiens, UniProt Q13822)
Test: Enzyme Inhibition Assay
Method: Then, 15 μL of 41.7 nM ATX solution was added (30 nM final concentration), mixed five times and then incubated for 15 minutes at 30° C. 10 μL of MR121 substrate solution was added (1 μM final concentration), mixed 30 times and then incubated for 15 minutes at 30° C.

Structure (SMILES): NS(=O)(=O)c1ccc(C(=O)N2C[C@H]3CN(C(=O)COc4ccc(OC(F)(F)F)cc4)C[C@]3(F)C2)c(F)c1 (relative stereo) [US10738053, Example 3.01]
- IC50: 7 nM
